Test results taken from patent publication US9662372B2 (priority 2013, dated 2017).
“And” between values parts separate entries of the source, which are not always exact repeats. Equal entries are not always repeated. Where a SMILES comes first, the peptide text is derived from it. Where no end group is shown, it is not given here. [ ]: non-standard residue; d: D form. βAla = NCCC(=O)O

Tests used:
[1] = target: T1, Clostridium difficile Toxin B (Clostridioides difficile, UniProt P18177); assay: Toxin B inactivation, CHO-k1 microwell dye reduction assay; type: cell-based; details: for Reduction of measured toxin B: at all tested concentrations, toxin B at high level
T1 construct: purchased List Biological Laboratory (Listlab, Campbell, Calif., USA)

[2] = tested on: crude toxin preparation from C. sordellii; type: cell-based
Shiga toxin 2 = Shiga toxin 2 (Escherichia phage 933W, UniProt P09385+P09386)
[3] = tested on: crude toxin preparation from B. cerus; type: cell-based, Bacillus cereus
[4] = tested on: crude toxin preparation from E. coli O157; type: cell-based, Escherichia coli O157
[5] = tested on: crude toxin preparation from C. perfringens; type: cell-based
Shiga toxin 1 = Shiga toxin 1 (UniProt P08026+P69178)
[6] = target: Clostridium difficile Toxin B (Clostridium difficile) (UniProt P18177)
C. difficile ATCC 9689 [7] = type: cell-based, Clostridium difficile
C. difficile ATCC 9689 [8] = assay: Bacterial mass in wells of PM panels (OD 750 nm); type: cell-based, Clostridium difficile; details: OD difference with vs without C. difficile, 72 h
[9] = at the lowest concentration of 0.03 μM, toxin B 1.2-100 ng/ml
[10] = nitrogen source (PM03/06/07/08)
[11] = phosphorus/sulfur source panel PM04

T1 sequence (P18177 whole entry): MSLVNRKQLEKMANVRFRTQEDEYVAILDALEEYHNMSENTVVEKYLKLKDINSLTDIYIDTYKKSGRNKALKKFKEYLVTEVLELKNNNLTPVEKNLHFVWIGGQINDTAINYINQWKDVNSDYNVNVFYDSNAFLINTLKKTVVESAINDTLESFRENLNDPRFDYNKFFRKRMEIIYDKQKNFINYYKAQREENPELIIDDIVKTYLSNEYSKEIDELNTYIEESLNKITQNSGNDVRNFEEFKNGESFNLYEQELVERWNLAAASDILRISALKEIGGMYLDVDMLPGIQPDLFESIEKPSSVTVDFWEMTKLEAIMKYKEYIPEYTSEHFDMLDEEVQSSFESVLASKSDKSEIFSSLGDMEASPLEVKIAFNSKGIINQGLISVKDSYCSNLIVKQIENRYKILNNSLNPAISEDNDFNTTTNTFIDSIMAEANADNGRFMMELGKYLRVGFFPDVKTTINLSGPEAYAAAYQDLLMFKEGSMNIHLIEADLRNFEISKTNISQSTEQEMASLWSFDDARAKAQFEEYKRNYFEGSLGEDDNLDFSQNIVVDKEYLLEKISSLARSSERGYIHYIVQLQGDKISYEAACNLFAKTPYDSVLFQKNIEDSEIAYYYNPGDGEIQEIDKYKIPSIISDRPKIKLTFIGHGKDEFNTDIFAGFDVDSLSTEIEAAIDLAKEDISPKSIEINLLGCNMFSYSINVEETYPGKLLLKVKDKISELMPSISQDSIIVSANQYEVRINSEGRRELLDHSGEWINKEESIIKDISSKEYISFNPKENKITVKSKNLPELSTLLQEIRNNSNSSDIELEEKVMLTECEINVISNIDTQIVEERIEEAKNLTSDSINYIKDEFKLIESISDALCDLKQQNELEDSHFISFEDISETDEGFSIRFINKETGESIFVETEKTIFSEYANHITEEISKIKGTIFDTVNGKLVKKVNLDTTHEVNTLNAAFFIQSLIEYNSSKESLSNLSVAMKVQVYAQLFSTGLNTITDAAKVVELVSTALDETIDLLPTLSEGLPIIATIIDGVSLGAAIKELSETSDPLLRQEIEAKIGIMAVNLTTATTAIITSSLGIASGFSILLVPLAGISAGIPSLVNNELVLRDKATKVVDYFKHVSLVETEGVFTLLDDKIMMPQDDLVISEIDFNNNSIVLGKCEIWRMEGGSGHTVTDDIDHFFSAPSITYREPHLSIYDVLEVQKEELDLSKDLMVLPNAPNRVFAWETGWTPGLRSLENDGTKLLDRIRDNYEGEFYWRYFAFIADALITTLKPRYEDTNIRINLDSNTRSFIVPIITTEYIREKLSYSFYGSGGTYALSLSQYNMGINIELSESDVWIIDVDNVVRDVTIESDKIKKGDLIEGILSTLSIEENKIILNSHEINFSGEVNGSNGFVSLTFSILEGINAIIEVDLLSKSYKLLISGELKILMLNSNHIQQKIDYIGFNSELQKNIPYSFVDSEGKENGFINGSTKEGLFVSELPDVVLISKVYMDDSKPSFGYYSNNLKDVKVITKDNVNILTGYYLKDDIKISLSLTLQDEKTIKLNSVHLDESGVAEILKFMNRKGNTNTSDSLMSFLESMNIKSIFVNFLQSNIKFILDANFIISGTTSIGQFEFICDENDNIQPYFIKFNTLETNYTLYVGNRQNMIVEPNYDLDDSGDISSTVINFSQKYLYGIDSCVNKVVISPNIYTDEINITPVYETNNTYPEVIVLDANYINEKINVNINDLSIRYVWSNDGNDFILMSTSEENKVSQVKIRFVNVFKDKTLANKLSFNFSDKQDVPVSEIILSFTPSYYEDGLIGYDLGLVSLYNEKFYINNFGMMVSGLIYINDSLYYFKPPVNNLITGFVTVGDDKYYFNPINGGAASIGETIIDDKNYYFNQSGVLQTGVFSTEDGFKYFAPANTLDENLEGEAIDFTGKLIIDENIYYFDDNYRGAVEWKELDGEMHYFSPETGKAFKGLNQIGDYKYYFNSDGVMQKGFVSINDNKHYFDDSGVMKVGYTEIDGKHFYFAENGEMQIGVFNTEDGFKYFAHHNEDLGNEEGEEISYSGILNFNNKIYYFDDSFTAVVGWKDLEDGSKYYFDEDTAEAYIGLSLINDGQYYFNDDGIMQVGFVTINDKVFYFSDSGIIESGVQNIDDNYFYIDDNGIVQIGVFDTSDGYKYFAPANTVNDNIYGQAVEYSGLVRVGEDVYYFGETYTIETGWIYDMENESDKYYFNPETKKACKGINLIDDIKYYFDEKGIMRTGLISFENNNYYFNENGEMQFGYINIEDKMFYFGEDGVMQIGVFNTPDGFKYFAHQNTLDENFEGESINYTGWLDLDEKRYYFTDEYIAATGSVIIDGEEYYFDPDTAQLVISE
Chain of Shiga toxin 1 (P08026 23-315 limits assumed): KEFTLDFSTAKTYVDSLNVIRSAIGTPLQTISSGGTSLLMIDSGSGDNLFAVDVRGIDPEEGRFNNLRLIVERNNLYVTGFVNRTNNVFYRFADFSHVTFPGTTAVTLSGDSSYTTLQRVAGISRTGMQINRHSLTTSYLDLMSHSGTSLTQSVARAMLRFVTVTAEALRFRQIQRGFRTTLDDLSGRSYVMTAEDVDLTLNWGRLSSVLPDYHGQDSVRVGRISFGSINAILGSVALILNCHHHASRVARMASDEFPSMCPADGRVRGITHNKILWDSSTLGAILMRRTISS
Chain of Shiga toxin 1 (P69178 21-89 limits assumed): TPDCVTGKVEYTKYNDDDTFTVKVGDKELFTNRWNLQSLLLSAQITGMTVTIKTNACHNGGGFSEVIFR
Chain of Shiga toxin 2 (P09385 23-319 limits assumed): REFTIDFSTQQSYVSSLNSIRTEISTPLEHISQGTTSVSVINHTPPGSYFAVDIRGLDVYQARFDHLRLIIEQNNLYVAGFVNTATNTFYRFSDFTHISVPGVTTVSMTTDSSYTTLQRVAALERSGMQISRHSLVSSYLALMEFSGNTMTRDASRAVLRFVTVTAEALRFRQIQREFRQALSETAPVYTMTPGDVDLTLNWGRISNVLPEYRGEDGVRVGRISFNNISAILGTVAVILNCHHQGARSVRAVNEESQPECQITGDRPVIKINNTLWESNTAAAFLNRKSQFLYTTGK
Chain of Shiga toxin 2 (P09386 20-89 limits assumed): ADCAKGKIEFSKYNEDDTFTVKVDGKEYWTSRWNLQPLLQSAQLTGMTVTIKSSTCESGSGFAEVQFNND

| Molecule | Toxin (C. difficile ATCC 9689 [7]) | C. difficile Mass (C. difficile ATCC 9689 [8]; [10]) | further results |
| --- | --- | --- | --- |
| poly-D-lysine | – | – | Toxin B inactivation ([1]; 50 ng/ml C. difficile Toxin B): effectively inactivates |
| protamine | – | – | Toxin inactivation [2]: did not inactivate; Toxin inactivation (Shiga toxin 2): did not inactivate; Reduction of measured toxin B [1]: dramatically reduce; Toxin B inactivation [1, 9]: completely inactivated; Optimal concentration against toxin B ([1]; double dilution experiment, FIG. 4): 0.26 µM; Toxin inactivation [3]: did not inactivate; Toxin inactivation [4]: did not inactivate; Toxin inactivation [5]: did not inactivate; Toxin inactivation (Shiga toxin 1): did not inactivate |
| poly-D-lysine (peptide) | – | – | concentration at which significant toxin inactivation begins [6]: 1 µg/mL |
| Gly-Arg | 352 ng/mL | 0.0403 OD (750 nm) | – |
| Arg-Tyr | 8819 ng/mL | 0.0455 OD (750 nm) | – |
| Ala-Gly | 2130 ng/mL | – | C. difficile Mass (C. difficile ATCC 9689 [8]; carbon source (PM01/PM02)): 0.0934 OD (750 nm) |
| Gly-Glu | 366 ng/mL and 184 ng/mL | 0.0472 OD (750 nm) | C. difficile Mass (C. difficile ATCC 9689 [8]; carbon source (PM01/PM02)): 0.0411 OD (750 nm) |
| Gly-Gly-Gly | 1811 ng/mL | 0.0456 OD (750 nm) | – |
| NO [Hydroxylamine] | 334 ng/mL | 0.0228 OD (750 nm) | – |
| NCCCCC(=O)O [δ-Amino-N-Valeric acid] | 435 ng/mL | 0.0424 OD (750 nm) | – |
| Gly-Gly-Leu | 215 ng/mL | 0.0305 OD (750 nm) | – |
| His-Leu | 376 ng/mL | 0.0495 OD (750 nm) | – |
| Gly-D-Ser | 297 ng/mL | 0.0543 OD (750 nm) | – |
| Arg-Glu | 4059 ng/mL | 0.0404 OD (750 nm) | – |
| Val-Asp | 225 ng/mL | 0.0469 OD (750 nm) | – |
| Thr-Pro | 4772 ng/mL | 0.0355 OD (750 nm) | – |
| poly-L-lysine (peptide) | – | – | concentration at which significant toxin inactivation begins [6]: 1 µg/mL |
| Lys-Ser | 5105 ng/mL | 0.0426 OD (750 nm) | – |
| Gly-Ser | <0.122 ng/mL | 0.0471 OD (750 nm) | – |
| CSCCC(NC(=O)C(N)CC(C)C)C(=O)O (stereo not drawn) [Leu-Met] (H-Leu-Met-OH; configuration not given here) | <0.122 ng/mL | 0.0501 OD (750 nm) | Effect on toxin production (in words) (C. difficile ATCC 9689 [7]): toxin production inhibitor |
| Gly-D-Asp | 1537 ng/mL | 0.0467 OD (750 nm) | – |
| Trp-Val | 184 ng/mL | 0.0276 OD (750 nm) | – |
| Trp-Arg | 6468 ng/mL | 0.0628 OD (750 nm) | – |
| NCCO [2-Aminoethanol] | 173 ng/mL | – | C. difficile Mass (C. difficile ATCC 9689 [8]; carbon source (PM01/PM02)): 0.0853 OD (750 nm) |
| Tyr-Phe | <0.122 ng/mL | 0.0559 OD (750 nm) | – |
| Arg-Trp | 8423 ng/mL | 0.0499 OD (750 nm) | – |
| Trp-Trp | 4104 ng/mL | 0.055 OD (750 nm) | – |

| Molecule | Toxin (C. difficile ATCC 9689 [7]) | C. difficile Mass (C. difficile ATCC 9689 [8]; [10]) | further results |
| --- | --- | --- | --- |
| Tyr-Tyr | 174 ng/mL | 0.0415 OD (750 nm) | – |
| OP(O)(O)=S [Thiophosphate] | <0.122 ng/mL | – | C. difficile Mass (C. difficile ATCC 9689 [8]; [11]): 0.0373 OD (750 nm) |
| NCCCCCC(=O)O [ε-Amino-N-Caproic acid] | 3389 ng/mL | 0.0366 OD (750 nm) | – |
| Ser-Pro | 7136 ng/mL | 0.0472 OD (750 nm) | – |
| CCC(C)C(NC(=O)C(N)CC(C)C)C(=O)O (stereo not drawn) [Leu-Ile] (H-Leu-Ile-OH; configuration not given here) | <0.122 ng/mL | 0.0523 OD (750 nm) | Effect on toxin production (in words) (C. difficile ATCC 9689 [7]): toxin production inhibitor |
| Lys-Gly | 1950 ng/mL | 0.047 OD (750 nm) | – |
| Gly-Trp | 3632 ng/mL | 0.0431 OD (750 nm) | – |
| His-Pro | 8568 ng/mL | 0.0481 OD (750 nm) | – |
| CS(=O)(=O)CC[C@H](N)C(=O)O [L-Methionine Sulfone] | <0.122 ng/mL | – | C. difficile Mass (C. difficile ATCC 9689 [8]; [11]): 0.0446 OD (750 nm) |
| Gly-Asp | 1507 ng/mL | – | C. difficile Mass (C. difficile ATCC 9689 [8]; carbon source (PM01/PM02)): 0.1004 OD (750 nm) |
| Lys-Arg | 5536 ng/mL | 0.0502 OD (750 nm) | – |
| Nc1ncnc2nc[nH]c12 [Adenine] | – | 0.031 OD (750 nm) | Toxin induction (rank, in words) (C. difficile ATCC 9689 [7]): strongest toxin inducer |
| polylysine | – | – | Concentration at which significant toxin inactivation begins ([1]; 50 ng/ml C. difficile Toxin B, dose response 0.042-42.5 ug/ml): approximately 1 ug/ml |
| polyarginine | – | – | Reduction of measured toxin B [1]: dramatically reduce; Toxin B inactivation [1, 9]: completely inactivated |
| Pro-Hyp | 7523 ng/mL | 0.045 OD (750 nm) | – |
| Val-Tyr-Val | 296 ng/mL | 0.0382 OD (750 nm) | – |
| [dA]-Gly-Gly | 515 ng/mL | 0.0538 OD (750 nm) | – |
| Tyr-Ala | 186 ng/mL | 0.0331 OD (750 nm) | – |
| O=P1([O-])OP(=O)([O-])OP(=O)([O-])O1.[Na+].[Na+].[Na+] [Trimetaphosphate] | <0.122 ng/mL | – | C. difficile Mass (C. difficile ATCC 9689 [8]; [11]): 0.0493 OD (750 nm) |
| Trp-Ala | 415 ng/mL | 0.0489 OD (750 nm) | – |
| NC(=O)CCCCC1CCSS1 (racemic) [D,L-Lipoamide] | <0.122 ng/mL | – | C. difficile Mass (C. difficile ATCC 9689 [8]; [11]): 0.0265 OD (750 nm) |
| Gly-D-Thr | 157 ng/mL | 0.0549 OD (750 nm) | – |
| [βAla]-Gly | 1547 ng/mL | 0.0389 OD (750 nm) | – |
| Lys-Glu | 271 ng/mL | 0.0425 OD (750 nm) | – |
| His-Trp | 178 ng/mL | 0.0442 OD (750 nm) | – |
| Val-Glu | 178 ng/mL | 0.0481 OD (750 nm) | – |
| CC(C)CC(N)C(=O)NC(CC(C)C)C(=O)NC(CC(C)C)C(=O)O (stereo not drawn) [Leu-Leu-Leu] (H-Leu-Leu-Leu-OH; configuration not given here) | <0.122 ng/mL | 0.0463 OD (750 nm) | Effect on toxin production (in words) (C. difficile ATCC 9689 [7]): toxin production inhibitor |

| Molecule | Toxin (C. difficile ATCC 9689 [7]) | C. difficile Mass (C. difficile ATCC 9689 [8]; [10]) | further results |
| --- | --- | --- | --- |
| O=C(O)[C@@H]1CCCN1 [L-Proline] | – | 0.0394 OD (750 nm) | Toxin induction (rank, in words) (C. difficile ATCC 9689 [7]): highest toxin inducer in the amino acid category |
| O=NO [Nitrite] | 383 ng/mL | 0.0333 OD (750 nm) | – |
| CC(C)C[C@H](NC(=O)[C@@H](N)CC(C)C)C(=O)O [Leu-Leu] | <0.122 ng/mL | 0.0530 OD (750 nm) | Effect on toxin production (in words) (C. difficile ATCC 9689 [7]): toxin production inhibitor |
| Leu-Asn | 381 ng/mL | 0.0482 OD (750 nm) | – |
| Thr-Gln | <0.122 ng/mL | 0.0403 OD (750 nm) | – |
| poly-L-lysine | – | – | Toxin B inactivation ([1]; 50 ng/ml C. difficile Toxin B): effectively inactivates |
| Val-Pro | 183 ng/mL | 0.0425 OD (750 nm) | – |
| Val-Ser | <0.122 ng/mL | 0.0455 OD (750 nm) | – |
| Lys-Phe | <0.122 ng/mL | 0.0533 OD (750 nm) | – |
| Gly-Phe-Phe | 298 ng/mL | 0.2751 OD (750 nm) | – |
| γ-D-Glu-Gly | 10122 ng/mL | 0.0519 OD (750 nm) | – |
| Arg-Ser | 7608 ng/mL | 0.0448 OD (750 nm) | – |
| Leu-Trp | <0.122 ng/mL | 0.0380 OD (750 nm) | Effect on toxin production (in words) (C. difficile ATCC 9689 [7]): toxin production inhibitor |
| Trp-Tyr | 134 ng/mL | 0.0451 OD (750 nm) | – |
| Ala-Pro | <0.122 ng/mL | 0.0507 OD (750 nm) | – |
| His-Lys | 6993 ng/mL | 0.0453 OD (750 nm) | – |
| 2,3-Butanone | <0.122 ng/mL | – | C. difficile Mass (C. difficile ATCC 9689 [8]; carbon source (PM01/PM02)): 0.0572 OD (750 nm) |
| Ser-Leu | 187 ng/mL | 0.0404 OD (750 nm) | – |
| Leu-Ser | 116 ng/mL | 0.037 OD (750 nm) | – |
| Lys-Asp | 335 ng/mL | 0.0525 OD (750 nm) | – |
| Arg-Arg | 8229 ng/mL | 0.0435 OD (750 nm) | – |
| [βAla]-His | 8265 ng/mL | 0.0473 OD (750 nm) | – |
| Pro-Arg | 2967 ng/mL | 0.0442 OD (750 nm) | – |
| Lys-Lys | 150 ng/mL | 0.0427 OD (750 nm) | – |
| Arg-Phe | 6541 ng/mL | 0.0467 OD (750 nm) | – |
